Measurements: PMC11157491, “Novel Alaninamide Derivatives with Drug-like Potential for Development as Antiseizure and Antinociceptive Therapies—In Vitro and In Vivo Characterization” (ACS Chemical Neuroscience, 2024)
Read-outs that look alike come from different tables or passages of the source.

How the values were obtained:
GABAA transporter = test: GABA transporter binding (antagonist radioligand); details: 100 μM, rat cerebral cortex
Method: Binding/functional studies were carried out commercially in Eurofins Laboratories (Poitiers, France) and Eurofins Panlabs Discovery Services Taiwan, Ltd. (New Taipei City, Taiwan) using testing procedures that were reported previously (for details, see Table S2).
Table S2. Radioligand binding and functional assays. […]
GABA transporter (antagonist radioligand) […]
Potassium channel (hERG) […]
Assays were performed commercially in Eurofins Laboratories ( Poitiers, France) or Eurofins Panlabs Discovery Services
Taiwan, Ltd. (New Taipei City, Taiwan).

[1] = Pharmacokinetic study in serum and brain; assay type: in vivo, mice; details: for k el: read-out: λz (converted); for Vd/F: read-out: Vz/F
Method: Male CD-1 mice weighing 28–33 g housed in conditions of constant temperature with the 12:12 h light–dark cycle with free access to food and water were used in this study. The investigated compound was suspended in 1% Tween in sterile water for injection (Polpharma, Poland) and administered i.p. at two doses of 25 and 50 mg/kg. Additionally, the compound dissolved in a mixture of dimethylsulfoxide (DMSO), poly(ethylene glycol), and sterile water (1:2:7, v/v/v) was given orally (p.o.) at a dose of 25 mg/kg. The mice were sacrificed by decapitation under isoflurane anesthesia. Blood samples were collected at 5, 15, 30, 60, 120, 240, and 720 min after dosing (n = 3–4), and brains were harvested at the same time points. Blood was allowed to clot at room temperature for 20 min, and serum was separated by centrifugation at 3000 rpm for 10 min. The samples were stored at −80 °C until analysis. All animal procedures were approved by the First Ethics Committee on Animal Experimentation in Kraków (license no. 270/2019).
Before LC-MS/MS analysis, mouse brains were homogenized in distilled water at the ratio of 1:4 (w/v) using the ULTRA-TURRAX T10 basic tissue homogenizer (IKA, Germany). Brain homogenates or serum samples (50 μL) were deproteinized with 150 μL of 0.1% formic acid in acetonitrile with addition of the internal standard (valsartan), shaken for 10 min (IKA Vibrax VXR, Germany), and then centrifuged for 5 min at a speed of 8000g (Eppendorf miniSpin centrifuge, Germany). Supernatants were transferred into autosampler vials, and a sample volume of 1 μL was injected into the LC-MS/MS system. The autosampler temperature was maintained at 15 °C. Analytes were separated on a Hypersil Gold C18 analytical column (3 × 50 mm^2, 5 μm, Thermo Scientific) using an AB Sciex Exion LC AC HPLC system coupled with the triple quadrupole mass spectrometer (Sciex QTRAP 4500, both from the Danaher Corporation). The oven temperature was set at 30 °C. The initial mobile phase composition was 95% B (0.1% formic acid in water) and 5% A (0.1% formic acid in MeCN) for the first 2 min with a linear gradient to 5% B in the next 2 min and then isocratic mode for 2 min with the following rapid change back to 95% B in 0.1 min. The remaining time of elution was set at 95% B. The whole HPLC operation lasted 10 min, and the flow rate was set at 0.4 mL/min. Electrospray ionization (ESI) in the positive ion mode was used for ion production. […] The mass spectrometric conditions were optimized by continuous infusion of the standard solution at a rate of 7 μL/min using a Harvard infusion pump. The ion source temperature was maintained at 450 °C, and the ion spray voltage was set at 5500 V. The curtain gas (CUR) was set at 40 psi and the collision gas (CAD) at Medium. The calibration curves were constructed by plotting the ratio of the peak area of the studied compound to the internal standard (IS) versus drug concentration and generated by weighted (1/x × x) linear regression analysis. […] Working standard solutions were prepared in methanol by the serial dilution of the stock solution at the following concentrations: 0.01, 0.1, 0.25, 0.5, 1, 2.5, 5, 10, 20, 50, 100, and 200 μg/mL. To prepare samples for the calibration curve, 45 μL of the matrix (plasma or brain homogenate) was spiked with 5 μL of the standard working solution at an appropriate concentration level and vortexed for 10 s. For each matrix, there were two calibration curves constructed separately for lower and higher concentrations. Calibrators (as well as samples) from the upper concentration range were additionally 10 times diluted with the precipitating agent. The validated quantitation ranges for this method were from 0.001 to 5 μg/mL and from 0.1 to 20 μg/mL of serum, and from 0.005 to 25 μg/g and from 0.5 to 100 μg/g of the brain. Samples with the concentration of 28 above the upper limit of quantification were diluted 10 times with the blank matrix (serum or brain homogenate). […]

[2] = male, CD-1, mouse, ip, brain, i.p. 25 mg/kg, mice
[3] = male, CD-1, mouse, ip, brain, i.p. 50 mg/kg, mice
[4] = male, CD-1, mouse, ip, serum, i.p. 25 mg/kg, mice
[5] = male, CD-1, mouse, ip, serum, i.p. 50 mg/kg, mice
[6] = male, CD-1, mouse, po, brain, p.o. 25 mg/kg, mice
[7] = male, CD-1, mouse, po, serum, p.o. 25 mg/kg, mice

% inhibition of control specific binding (GABAA transporter): 15.0% | brain concentration ([1]; after 25 mg/kg dose administration): > 10 µM | AUC0–t ([1]; brain, i.p. 25 mg/kg, mice): 347,914.8 ng·min/mL (g) | AUC0–∞ ([1]; brain, i.p. 25 mg/kg, mice): 348,212.5 ng·min/mL (g) | Cmax ([1]; brain, i.p. 25 mg/kg, mice): 13,683.3 ng/mL (g) | t0.5λz ([1]; brain, i.p. 25 mg/kg, mice): 111.39 min | AUC0–t ([1]; brain, i.p. 50 mg/kg, mice): 1,284,194.3 ng·min/mL (g) | AUC0–∞ ([1]; brain, i.p. 50 mg/kg, mice): 1,285,007.9 ng·min/mL (g) | Cmax ([1]; brain, i.p. 50 mg/kg, mice): 39,800.0 ng/mL (g) | t0.5λz ([1]; brain, i.p. 50 mg/kg, mice): 106.52 min | AUC0–t ([1]; brain, p.o. 25 mg/kg, mice): 333,360.7 ng·min/mL (g) | AUC0–∞ ([1]; brain, p.o. 25 mg/kg, mice): 334,667.7 ng·min/mL (g) | Cmax ([1]; brain, p.o. 25 mg/kg, mice): 3799.4 ng/mL (g) | t0.5λz ([1]; brain, p.o. 25 mg/kg, mice): 97.20 min | Kp ([1]; male, CD-1, mouse, brain/serum, intraperitoneal, oral, both doses and routes of administration, read-out: brain-to-serum Cmax and AUC ratio): > 1 | Tmax ([1]; male, CD-1, mouse, intraperitoneal, oral, all cases (serum and brain, both doses and routes), read-out: time to reach the maximum concentration (tmax) (converted)): 5 min | half-life ([1]; male, CD-1, mouse, intraperitoneal, oral, serum and brain, both doses and routes (i.p. and p.o.), read-out: elimination half-lives (t1/2)): 58.6 to 111 min | MRT [1, 2]: 23.6 min | Tmax ([1]; male, CD-1, mouse, ip, brain, i.p. 25 mg/kg, mice, read-out: tmax (converted)): 5 min | k el [1, 2]: 0.0001 s⁻¹ | MRT [1, 3]: 26.4 min | Tmax ([1]; male, CD-1, mouse, ip, brain, i.p. 50 mg/kg, mice, read-out: tmax (converted)): 5 min | k el [1, 3]: 0.000117 s⁻¹ | CL/F [1, 4]: 98 mL/min/kg | MRT [1, 4]: 22 min | Vd/F [1, 4]: 13.4 L/kg | Tmax ([1]; male, CD-1, mouse, ip, serum, i.p. 25 mg/kg, mice, read-out: tmax (converted)): 5 min | k el [1, 4]: 0.000117 s⁻¹ | CL/F [1, 5]: 48 mL/min/kg | MRT [1, 5]: 24.4 min | Vd/F [1, 5]: 5.89 L/kg | Tmax ([1]; male, CD-1, mouse, ip, serum, i.p. 50 mg/kg, mice, read-out: tmax (converted)): 5 min | k el [1, 5]: 0.000133 s⁻¹ | MRT [1, 6]: 110 min | Tmax ([1]; male, CD-1, mouse, po, brain, p.o. 25 mg/kg, mice, read-out: tmax (converted)): 5 min | k el [1, 6]: 0.000117 s⁻¹ | CL/F [1, 7]: 84 mL/min/kg | MRT [1, 7]: 101 min | Vd/F [1, 7]: 7.1 L/kg | Tmax ([1]; male, CD-1, mouse, po, serum, p.o. 25 mg/kg, mice, read-out: tmax (converted)): 5 min | k el [1, 7]: 0.0002 s⁻¹ | AUC0–t ([1]; serum, i.p. 25 mg/kg, mice): 254,384.6 ng·min/mL (g) | AUC0–∞ ([1]; serum, i.p. 25 mg/kg, mice): 254,465.4 ng·min/mL (g) | Cmax ([1]; serum, i.p. 25 mg/kg, mice): 11,033.3 ng/mL (g) | t0.5λz ([1]; serum, i.p. 25 mg/kg, mice): 94.29 min | AUC0–t ([1]; serum, i.p. 50 mg/kg, mice): 1,045,787.2 ng·min/mL (g) | AUC0–∞ ([1]; serum, i.p. 50 mg/kg, mice): 1,045,940.8 ng·min/mL (g) | Cmax ([1]; serum, i.p. 50 mg/kg, mice): 37,566.7 ng/mL (g) | t0.5λz ([1]; serum, i.p. 50 mg/kg, mice): 85.42 min | AUC0–t ([1]; serum, p.o. 25 mg/kg, mice): 297,899.7 ng·min/mL (g) | AUC0–∞ ([1]; serum, p.o. 25 mg/kg, mice): 298,019.5 ng·min/mL (g) | Cmax ([1]; serum, p.o. 25 mg/kg, mice): 3740.0 ng/mL (g) | t0.5λz ([1]; serum, p.o. 25 mg/kg, mice): 58.62 min
Compound: CC(=O)NC(C)C(=O)N1CCN(c2cccc(OC(F)(F)F)c2)CC1 (centres unmarked) [Compound 28, N-(1-oxo-1-(4-(3-(Trifluoromethoxy)phenyl)piperazin-1-yl)propan-2-yl)acetamide]
